Laboratory results as given in publication PMC11002716 (ACS chemical biology, 2022).
Ends that are not written are not given here.

What was measured:
[1] = target: fluorescein-labeled KB-752; assay: MST
[2] = system: Gi signaling (δ–opioid receptor, AC); assay: Cell-free ELISA-based cAMP assay on NG108–15 membrane preparations; assay type: biochemical; conditions: Fsk+DADLE
[3] = system: HEK293 cells overexpressing the SNAP-β2 adrenergic receptor (Gs signaling pathway); assay: Whole-cell Iso-induced cAMP accumulation assay; assay type: cell-based
[4] = system: Gs signaling (β2–adrenergic receptor, AC); assay: Cell-free ELISA-based cAMP assay on NG108–15 membrane preparations; assay type: biochemical
Gαi1·GDP = Gαi1·GDP (UniProt P63096 2-354); assay: MST
Chain of Gαi1·GDP (UniProt P63096 2-354) (P63096 2-354): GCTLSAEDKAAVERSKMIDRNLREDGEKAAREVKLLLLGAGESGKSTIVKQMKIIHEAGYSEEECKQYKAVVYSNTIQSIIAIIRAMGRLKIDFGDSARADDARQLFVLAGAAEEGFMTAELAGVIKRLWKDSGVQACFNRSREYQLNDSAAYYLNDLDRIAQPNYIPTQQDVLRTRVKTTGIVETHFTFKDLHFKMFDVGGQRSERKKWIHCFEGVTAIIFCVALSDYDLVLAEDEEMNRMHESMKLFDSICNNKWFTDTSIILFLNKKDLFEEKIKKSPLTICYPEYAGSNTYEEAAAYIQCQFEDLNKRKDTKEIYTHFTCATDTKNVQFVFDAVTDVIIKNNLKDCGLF

Q: For “Gαi1·GDP (from UniProt P63096 2-354) (natural protein)”, which Kd [1] is on record?
A: 0.345 µM

Q: With SRVTWYDFLMEDTKSR-OH [KB–752] as the molecule, how does the “effect on DADLE-mediated inhibition of the AC activity” value [2] read?
A: no effect

Q: What about the “effect on Gαs in the whole cell assay” value [3] of the same molecule?
A: no effect

Q: What about the “effect on Gs signaling / functional regulation of Gαs in cell-free ELISA” value [4] of the same molecule?
A: inhibit Gs signaling

B1: GPM-1 Y5A, fluorescein-labeled (peptide)
peptide: {5(6)‑carboxyfluorescein}-RWLRALRYP
Q: With B1 as the molecule, how does the Kd (Gαi1·GDP) read?
A: 0.285 ± 0.04 µM
